Consider five molecules from patent US6626982B1, “Compound storage” (AstraZeneca AB, priority 1998, dated 2003).

A short description of data set [1]: Adsorption onto Florisil and desorption into DMSO, quantified by RP-HPLC against a 10 mM control solution. The class given is physicochemical. The settings on record: for Conc. (mM) of Compound in DMSO after desorption from Florisil / Conc. (mM) of Z-Trp-NH2 in DMSO after desorption from Florisil: control 10.00; for Conc. (mM) of Z-Trp-NH2 in DMSO after desorption from Florisil: nominal conc. 10 mM. How it is done:
1. 16.9 mg (50 μmol) of Z-Trp-NH2 in DMSO (0.5-5 ml) added to carrier (100 mg, 225 mg and 475 mg).
3. Evaporate off DMSO using centrifugal evaporator (70°/1 hr).
4. Mix resulting solid with spatula to ensure distribution as even as possible.
5. Weigh duplicate samples (to contain nominal 10 μmol Z-Trp-NH2) into vials.
6. Add DMSO to achieve 10^−2M conc. (nominal).
7. Dilute for HPLC analysis and compare with 10^−2M control solution of Z-Trp-NH2 similarly diluted.
Z-Trp-NH2 (169 mg) was dissolved in DMSO (50 ml) to give a 10 mM solution. Aliquots of the solution (5 ml, 50 μmol) were added to a 100 mg and a 225 mg sample of Florisil™ in 2-dram glass vials. The samples were vortexed for approximately one minute and the DMSO removed in vacuo by evaporation at 70° for 1 h in a centrifugal evaporator (GeneVac Atlas HT4™). After evaporation the samples were removed and checked visually. In each case dry solids were obtained in the form of free flowing powders virtually indistinguishable from the original Florisil™. The nominal loadings of the adsorbed samples were calculated as 207 and 427 μmol/g of Z-Trp-NH2.
Duplicate amounts (11.7 and 24.2 mg respectively) of the 427 and 207 μmol/g Z-Trp-NH2/Florisil™ samples were weighed into glass vials. DMSO (0.5 ml) was added to each vial and the vials were agitated gently for 15 min to give a nominal concentration of 10 mM of Z-Trp-NH2. Aliquots from each vial were diluted 100-fold with CH3CN and analysed by RP-HPLC monitoring by UV at […]. The peak areas obtained for the desorbed Z-Trp-NH2 DMSO solutions were compared with those obtained using a 10 mM control soln of Z-Trp-NH2 in DMSO similarly diluted.
Using a procedure analogous to that used for Z-Trp-NH2 the following results were obtained (Table 4 and FIG. 3)

Data set [2] in a line: Stability of Fmoc-Arg in DMSO and when adsorbed onto Florisil (HPLC). The class given is physicochemical.
Where [3] appears, read: ratio of compound to Florisil 200.0 μmol/g.
[4] abbreviates: ratio of compound to Florisil 200.1 μmol/g.
The mark [5] stands for this setting: ratio of compound to Florisil 397.5 μmol/g.
The mark [6] stands for this setting: ratio of compound to Florisil 400.6 μmol/g.

“And” between values parts separate entries of the source, which are not always exact repeats. Equal entries are not always repeated.

Turning to `N=C(N)NCCC[C@H](NC(=O)OCC1c2ccccc2-c2ccccc21)C(=O)O` [Fmoc-Arg, Fmoc-Arginine], in data set [1] (comparable to those obtained with Z-Trp-NH2), the “Overall adsorption/desorption result with Florisil” value is listed as “apparent low release”. Besides, the “Conc. (mM) of Compound in DMSO after desorption from Florisil” value (“Conc. (mM) of Compound in DMSO” for short) in data set [1] (setting [3]) is given as 7.70 mM; in data set [1] (setting [4]), 7.65 mM; in data set [1] (setting [5]) it was 5.11 mM; in data set [1] (setting [6]), 5.53 mM. In addition, the “Decomposition in DMSO” value in data set [2] (10^-2 M in DMSO, after 24 hours at ambient temperature) is on record as “decomposes completely”. In addition, in data set [2] (adsorbed onto Florisil, some decomposition during adsorption/desorption when DMSO is present), the “Stability when adsorbed onto Florisil” value is recorded as “stable”. The “Detection by HPLC after centrifugal evaporation and dissolution into DMSO” value in data set [2] (control experiment, no Florisil added) is on record as “not possible to detect any Fmoc-Arg”.
With `Cl.NC(=O)[C@@H](N)Cc1c[nH]c2ccccc12` [Trp-NH2.HCl, Tryptophan amide hydrochloride], the “Conc. (mM) of Compound in DMSO” value in data set [1] (setting [3]) is 10.04 mM; in data set [1] (setting [4]) it was 10.31 mM; in data set [1] (setting [5]), 11.93 mM; in data set [1] (setting [6]), 10.51 mM.
Consider `NC(=O)[C@H](Cc1c[nH]c2ccccc12)NC(=O)OCc1ccccc1` [Z-Trp-NH2], for which the “Conc. (mM) of Z-Trp-NH2 in DMSO after desorption from Florisil” value in data set [1] (ratio of Z-Trp-NH2 to Florisil 200 μmol/g) was 9.21 mM and 9.79 mM; in data set [1] (ratio of Z-Trp-NH2 to Florisil 400 μmol/g) it was 10.26 mM and 10.09 mM.
As for Boc-Naphthylalanine [Boc-Nal], the “Conc. (mM) of Compound in DMSO” value was 9.10 mM in data set [1] (setting [3]), 9.06 mM in data set [1] (setting [4]), 9.64 mM in data set [1] (setting [5]) and 9.64 mM in data set [1] (setting [6]).
With Boc-Pyridylalanine [Boc-Pal], the “Conc. (mM) of Compound in DMSO” value in data set [1] (setting [3]) amounted to 9.75 mM; in data set [1] (setting [4]), 14.20 mM; in data set [1] (setting [5]) it was 11.06 mM; in data set [1] (setting [6]), 10.63 mM.
